This is an account of results in article PMC10823471, “Ligand-Based Competition Binding by Real-Time ^19F NMR in Human Cells” (Journal of Medicinal Chemistry, 2024).

This assay has as its target T1, Hsp90α N-terminal domain (Hsp90N) (Homo sapiens, UniProt P07900).
T1 construct: gene HSP90AA1
Description: competition binding by real-time in-cell […] NMR against spy ligand […] (Kd back-calculated). Format: cell-based.

What is called Kd is the concentration at which binding is half-saturated. In the case of `CCNC(=O)c1cc2c(-c3cc(OCCN(CC)CC)c(Cl)cc3Cl)nc(N)nc2s1` [compound 5], the equilibrium dissociation constant (Kd) was 0.6 ± 0.1 nM.
